Assay [1] deals with Glycogen synthase kinase-3 (Homo sapiens, UniProt P49840+P49841). In words: Inhibitory concentration against the Glycogen synthase kinase-3. The assay is classed as protein assay.
The species entered for assay [2] is Homo sapiens. In words: IC50 ratio between CDK4 and GSK-3.
For assay [3], the target named is Glycogen synthase kinase-3 beta (Homo sapiens, UniProt P49841). In words: Inhibitory concentration to inhibit Ser396 phosphorylation of tau, a natural substrate of GSK-3 in SY5Y cells. The assay is classed as functional, cell-based.
Assay [4] is filed under the species Homo sapiens. In words: IC50 ratio between PKCbeta II and GSK-3.

Some results are limits rather than exact numbers.

Chain of Glycogen synthase kinase-3 beta (P49841 whole entry): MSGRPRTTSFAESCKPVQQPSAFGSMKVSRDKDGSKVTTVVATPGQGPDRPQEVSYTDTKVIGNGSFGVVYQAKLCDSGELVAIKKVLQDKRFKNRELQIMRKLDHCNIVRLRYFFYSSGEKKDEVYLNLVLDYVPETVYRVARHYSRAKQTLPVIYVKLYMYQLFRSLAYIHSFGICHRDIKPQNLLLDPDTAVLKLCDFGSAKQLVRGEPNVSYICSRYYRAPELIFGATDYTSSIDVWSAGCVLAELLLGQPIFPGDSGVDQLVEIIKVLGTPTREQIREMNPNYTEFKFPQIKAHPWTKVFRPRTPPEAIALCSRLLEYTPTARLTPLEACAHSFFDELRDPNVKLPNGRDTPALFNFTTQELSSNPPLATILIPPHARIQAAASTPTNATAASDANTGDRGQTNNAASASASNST

Regarding `O=C1NC(=O)C(c2cnc3ncccn23)=C1c1cn2c3c(cccc13)CN(C(=O)N1CCOCC1)CC2`, the values for the IC50 in assay [1] and in assay [3] were 1.7 nM and 297 nM, respectively. For the same molecule, the Selectivity in assay [2] is 8580; in assay [4] it was over 11800.
In the case of `CC(=O)N1CCn2cc(C3=C(c4cccc5ccsc45)C(=O)NC3=O)c3cccc(c32)C1`, the half-maximal inhibitory concentration (IC50) (usually the midpoint of a concentration-inhibition curve) in assay [1] came out at 19 nM. Moreover, the Selectivity in assay [2] and in assay [4] was 7 throughout.
In turn, `O=C1NC(=O)C(c2cnc3ccccn23)=C1c1cn2c3c(cccc13)CN(C(=O)N1CCCCC1)CC2` came in with an IC50 in assay [1] of 2 nM. The Selectivity in assay [2] came out at 2420; in assay [4] it was 281.
Turning to `O=C1NC(=O)C(c2cnc3cnccn23)=C1c1cn2c3c(cccc13)CN(C(=O)N1CCCCC1)CC2`, the IC50 is 2.1 nM in assay [1] and 8.7 nM in assay [3]. For the same molecule, the Selectivity in assay [2] was 8920; in assay [4] it was over 9500.
Take `O=C1NC(=O)C(c2cn3c4c(cccc24)CNCC3)=C1c1cccc2c1OCO2`: the IC50 in assay [1] turned out to be 13 nM. The Selectivity in assay [2] was determined as 2; in assay [4], 103.
On to `CN(C)C(=O)N1CCn2cc(C3=C(c4ccn5ncccc45)C(=O)NC3=O)c3cccc(c32)C1`, for which the IC50 in assay [1] is 4.7 nM; in assay [3], 38 nM. The Selectivity in assay [2] is 370; in assay [4], 235.
In turn, `O=C1NC(=O)C(c2cn3c4c(cccc24)CNCC3)=C1c1ccc2c(c1)OCO2` yielded an IC50 in assay [1] of 27 nM. In addition, the Selectivity came to 18 in assay [2] and 202 in assay [4].
In the case of `O=C1NC(=O)C(c2cnc3cccnn23)=C1c1cn2c3c(cccc13)CNCC2`, the 50% inhibitory concentration (IC50) in assay [1] was 4.8 nM. Further, the Selectivity in assay [2] amounted to 15; in assay [4], 133.
`O=C1NC(=O)C(c2cccc3cc[nH]c23)=C1c1cn2c3c(cccc13)CNCC2`: in assay [1], the IC50 worked out at 150 nM.
The molecule `CCC(=O)N1CCn2cc(C3=C(c4cncc5ccoc45)C(=O)NC3=O)c3cccc(c32)C1` displayed an IC50 in assay [1] of 1 nM. The Selectivity in assay [2] came to 98; in assay [4], 375.
For `O=C1NC(=O)C(c2cccc3ccoc23)=C1c1cn2c3c(cccc13)CNCC2`, in that order: 3.4 nM, 5 and 183.
For `CC(=O)N1CCn2cc(C3=C(c4cccc5c4OCO5)C(=O)NC3=O)c3cccc(c32)C1`, in that order: 2.5 nM, 50 and 240.
For `CC(=O)N1CCn2cc(C3=C(c4cncc5ccoc45)C(=O)NC3=O)c3cccc(c32)C1`, in that order: 0.9 nM, 60 and 422.
`O=C1NC(=O)C(c2cn3c4c(cccc24)CNCC3)=C1c1cccc2c1CCO2` yielded a half-maximal inhibitory concentration (IC50) in assay [1] of 130 nM.
Regarding `CN(C)C(=O)N1CCn2cc(C3=C(c4cccc5c4OCO5)C(=O)NC3=O)c3cccc(c32)C1`, the IC50 in assay [1] was determined as 3.2 nM. Also, the Selectivity in assay [2] worked out at 89; in assay [4], 190.
For `CN(C)C(=O)N1CCn2cc(C3=C(c4cccc5ccoc45)C(=O)NC3=O)c3cccc(c32)C1`, in that order: 2.7 nM, 35 and 89.
In the case of `O=C1NC(=O)C(c2cn3c4c(cccc24)CNCC3)=C1c1cccc2sccc12`, the IC50 in assay [1] is given as 34 nM.
In turn, `CC(=O)N1CCn2cc(C3=C(c4cccc5c4OCC5)C(=O)NC3=O)c3cccc(c32)C1` registered an IC50 in assay [1] of 1.1 nM. The Selectivity in assay [2] is 77; in assay [4] it was 133.
Take `CC(=O)N1CCn2cc(C3=C(c4cnc5ccccn45)C(=O)NC3=O)c3cccc(c32)C1`: the IC50 in assay [1] was 1.9 nM; in assay [3], 111 nM. Further, the results for the Selectivity in assay [2] and in assay [4] were 483 and 457, respectively.
For `O=C1NC(=O)C(c2cnc3cnccn23)=C1c1cn2c3c(cccc13)CN(C(=O)N1CCOCC1)CC2`, in that order: 3.2 nM, 11 nM, 4550 and over 6300.
`O=C1NC(=O)C(c2cnc3ccccn23)=C1c1cn2c3c(cccc13)CN(C(=O)N1CCOCC1)CC2` had a half-inhibitory concentration (IC50) in assay [1] of 1.3 nM.
With `O=C1NC(=O)C(c2cn3c4c(cccc24)CNCC3)=C1c1cccc2c1ccn2CCCO`, in assay [1], the half-inhibitory concentration (IC50) turned out to be 27 nM. Besides, the figures for the Selectivity in assay [2] and in assay [4] were 1 and 9, respectively.
For `O=C1NC(=O)C(c2ccn3ncccc23)=C1c1cn2c3c(cccc13)CNCC2`, in that order: 30 nM, 10 and 18.
Regarding `O=C1NC(=O)C(c2cn3c4c(cccc24)CNCC3)=C1c1cccc2occc12`, the IC50 in assay [1] worked out at 41 nM. The figures for the Selectivity in assay [2] and in assay [4] were 1 and 39, respectively.
As for `O=C1NC(=O)C(c2cn3c4c(cccc24)CNCC3)=C1c1coc2ccccc12`, in assay [1], the half-maximal inhibitory concentration (IC50) was 64 nM.
In turn, `O=C1NC(=O)C(c2cccc3ccsc23)=C1c1cn2c3c(cccc13)CNCC2` displayed a half-inhibitory concentration (IC50) in assay [1] of 45 nM. Moreover, the Selectivity in assay [2] came out at 1; in assay [4], 15.
Molecule `O=C1NC(=O)C(c2ccn3ncccc23)=C1c1cn2c3c(cccc13)CN(C(=O)N1CCOCC1)CC2` showed a half-inhibitory concentration (IC50) in assay [1] of 1.3 nM. For the same molecule, the Selectivity in assay [2] came to 1900.
As to `O=C1NC(=O)C(c2cn3c4c(cccc24)CNCC3)=C1c1ccc2c(c1)COC2`, the IC50 in assay [1] amounted to 83 nM.
Take `CN(C)C(=O)N1CCn2cc(C3=C(c4cnc5ccccn45)C(=O)NC3=O)c3cccc(c32)C1`: the IC50 in assay [1] is 1.6 nM. For the same molecule, the values for the Selectivity in assay [2] and in assay [4] were 907 and 635, respectively.
`O=C1NC(=O)C(c2cnc3ccccn23)=C1c1cn2c3c(cccc13)CN(C(=O)C1CCOCC1)CC2`: the values for the IC50 in assay [1] and in assay [3] were 0.8 nM and 7.7 nM, respectively. Also, the Selectivity in assay [2] is 2650; in assay [4], 1740.
In assay [1], `O=C1NC(=O)C(c2cnc3cnccn23)=C1c1cn2c3c(cccc13)CNCC2` came in with an IC50 of 60 nM. Besides, the Selectivity in assay [2] is 19; in assay [4] it was over 334.
The molecule `O=C1NC(=O)C(c2cnc3ccccn23)=C1c1cn2c3c(cccc13)CNCC2` yielded an IC50 in assay [1] of 12 nM. Moreover, the results for the Selectivity in assay [2] and in assay [4] were 13 and 28, respectively.
For `O=C1NC(=O)C(c2cnc3ccncn23)=C1c1cn2c3c(cccc13)CNCC2`, in that order: 330 nM, 14 and 3.
For `CC(=O)N1CCn2cc(C3=C(c4cccc5ccoc45)C(=O)NC3=O)c3cccc(c32)C1`, in that order: 1.5 nM, 25 and 80.
Turning to `O=C1NC(=O)C(c2cncc3ccoc23)=C1c1cn2c3c(cccc13)CNCC2`, the IC50 in assay [1] is recorded as 3.2 nM. Also, the results for the Selectivity in assay [2] and in assay [4] were 6 and 54, respectively.
Regarding `O=C1NC(=O)C(c2cnc3ncccn23)=C1c1cn2c3c(cccc13)CN(C(=O)N1CCCCC1)CC2`, the IC50 stood at 1.9 nM in assay [1] and 53 nM in assay [3]. Further, the Selectivity was 10000 in assay [2] and over 1060 in assay [4].
For `CC(C)C(=O)N1CCn2cc(C3=C(c4cnc5ccccn45)C(=O)NC3=O)c3cccc(c32)C1`, in that order: 1.8 nM, 5 nM, 2020 and 522.
Molecule `O=C1NC(=O)C(c2cn3c4c(cccc24)CNCC3)=C1c1cccc2c1OCC2` came in with an IC50 in assay [1] of 3.3 nM. The Selectivity in assay [2] amounted to 7; in assay [4], 53.
For `Cn1ccc2c(C3=C(c4cn5c6c(cccc46)CNCC5)C(=O)NC3=O)cccc21`, in that order: 33 nM, 1 and 28.
On to `CN(C)C(=O)N1CCn2cc(C3=C(c4cncc5ccoc45)C(=O)NC3=O)c3cccc(c32)C1`, for which the half-inhibitory concentration (IC50) in assay [1] was found to be 1.2 nM. Further, the Selectivity in assay [2] is 112.
For `O=C1NC(=O)C(c2cncc3ccoc23)=C1c1cn2c3c(cccc13)CN(C(=O)N1CCOCC1)CC2` [BISARYLMALEIMIDE 2], in that order: 0.8 nM and 158.
On to `O=C1NC(=O)C(c2cnc3cccnn23)=C1c1cn2c3c(cccc13)CN(C(=O)N1CCCCC1)CC2` [BISARYLMALEIMIDE 1], for which the values for the IC50 in assay [1] and in assay [3] were 1.6 nM and 0.3 nM, respectively. Besides, the Selectivity came to 1330 in assay [2] and 1300 in assay [4].
The molecule `O=C1NC(=O)C(c2cnc3ncccn23)=C1c1cn2c3c(cccc13)CNCC2` gave an IC50 in assay [1] of 120 nM. Further, the results for the Selectivity in assay [2] and in assay [4] were 20 and 112, respectively.
On to `O=C1NC(=O)C(c2cnc3ccncn23)=C1c1cn2c3c(cccc13)CN(C(=O)N1CCOCC1)CC2`, for which, in assay [1], the IC50 turned out to be 71 nM. Also, the Selectivity in assay [2] and in assay [4] was over 282 in each case.
For `O=C1NC(=O)C(c2cncc3ccoc23)=C1c1cn2c3c(cccc13)CN(C(=O)N1CCCCC1)CC2`, the IC50 in assay [1] is 2.1 nM. In addition, the Selectivity in assay [2] was 92; in assay [4], 108.

For the origin of these results see ChEMBL document CHEMBL1141975, “The development of potent and selective bisarylmaleimide GSK3 inhibitors” (Bioorg Med Chem Lett, 2005).
